Reference: patent publication US20250304933A1, “INDUCIBLE RECOMBINASE SYSTEMS” (priority 2022, published 2025)

What was measured:
[1] = system: DreSTAPL (Dre split with HCV-derived NS3 protease); assay: DreStaPL recombination reporter assay in infected Lin- bone marrow (Rosa26:RLTG); format: cell-based, mice; conditions: 10 μM
Procedure: (§1) FIGS. 27A-27I show inducible recombinases for modeling Flt3 activation.
(§2) MSCV retroviral vectors were transfected with pCL-Eco packaging vector into 293T-17 cells using JetPRIME following the manufacturers protocol (5 ug each, 1:1). Conditioned media was collected 72 hours later and passed through a 0.45 uM filter. Virus was either used fresh or stored at −80 C for later usage. For viral infection in FIG. 4 and Extended Data 8, lineage negative bone marrow was isolated using the Mouse Hematopoietic Progenitor Cell Isolation Kit (StemCell 19856) and plated over retronectin coated 6 or 12 well plates for 2 hours in RPMI+10% FBS supplemented with Penicillin/Streptomycin, 20 ng SCF, 10 ng IL6 and 10 ng IL3. Virus and 100×HEPES was added to the wells, then plates were spun for 1 hour at 800×G at 37 C. Following spin, small molecule ligands used to activate recombinases were added to a final concentration as indicated ethanol (v/v 0.0015%), DMSO (v/v 0.1%), 4-hydroxytamoxifen (4-OHT; 400 nM), trimethoprim (TMP; 1 uM) or grazoprevir (GZV, 10 uM). Cells were harvested for flow cytometric analysis 48 hours post infection. For viral infection followed by transplantation in Extended Data 8, a similar approach was utilized with the following modifications. Donor mice were treated with 5-FU 6 days prior to harvest. […]

[2] = system: DreStaPL-ODC Flt3^GL-ITD mice; assay: complete blood counts of DreStaPL-ODC x Flt3^GL-ITD mice after GZV; format: in vivo; conditions: crossed to Flt3^GL-ITD, 6-8 weeks post treatment
Procedure: Peripheral blood was isolated by submandibular bleeds. Complete blood counts were assessed on a ProCyte by IDEXX. For flow cytometry analysis whole blood was lysed with RBC lysis buffer (Biolegend). […] For whole bone marrow was isolation, the femur, hip and tibia were dissected and cleaned.

Jak2^V617F LSKs and MEPs = conditions: 7 days of treatment; for down-regulation of STAT5 target gene expression, NES: vs MPN control
Procedure: Lineage-depleted marrow was isolated and then TdTonmato+ (Jak2^RL knock-in) or GFP+ (Jak2^RL knock-out) LSKs and MEPs were sorted on a FACSAria III directly into Trizol LS (Invitrogen) and stored at −80° C. until processing. RNA was subsequently isolated using the Direct-Zol Microprep Kit (Zymo Research, R2061) according to manufacturer's protocol and quantified using the Agilent High Sensitivity RNA ScreenTape (Agilent 5067-5579) on an Agilent 2200 TapeStation. cDNA was generated from 1 ng of input RNA using the SMART-Seq HT Kit (Takara 634455) at half reaction volume followed by Nextera XT (Illumina FC-131-1024) library preparation. cDNA and tagmented libraries were quantified using High Sensitivity D5000 ScreenTape (5067-5592) and High Sensitivity D1000 ScreenTape respectively (5067-5584). Libraries were sequenced on a NovaSeq at the Integrated Genomics Operation (IGO) at MSKCC.
Statistical analyses were performed using Student's t-test (normal distribution) using GraphPad Prism version 6.Oh (GraphPad Software, San Diego, CA). Kaplan-Meier curves were determined using the log-rank test. P<0.05 was considered statistically significant. The number of animals, cells and experimental replication can be found in the respective figure legends. FASTQ files were demultiplexed using a java script from Takara. FASTQ files were mapped and transcript counts were enumerated using STAR (genome version mm10 and transcript version ensembl XX). Counts were input into R and RNA-sequencing analysis using DESeq2. Gene set enrichment analysis was performed using the fgsea package with genesets extracted from the msigdbr package. Single sample gene set enrichment analysis was performed using the gsva package. Figures were generated using ggplot2 and tidyhetamps packages.

[3] = system: UbcCreER-Jak2^RL MPN mice; assay: bone marrow myeloid progenitor frequencies by flow cytometry after 7 days of treatment; format: in vivo
[4] = system: mice transplanted with UbcCreER-Jak2^RL bone marrow exhibiting active MPN; assay: 6-week in vivo drug trial in competitive transplant MPN mice; conditions: for CD45.2 chimerism in peripheral blood: 6-week trial; for mutant cell fraction in LSK stem-cell enriched population (mean): bone marrow; for mutant cell fraction in LSK stem-cell enriched population (mean) / spleen weights (mean) / Hct: conclusion of 6-week trial; for spleen weights (mean): ruxolitinib 60 mg/kg P.O. twice daily, CHZ868 30 mg/kg P.O. daily
Procedure: (§3) Peripheral blood was isolated by submandibular bleeds.
Investigators were not blinded to the identity of mice or samples. Mice were treated for a total of 6 weeks before timed sacrifice and marrow/spleen harvested as above.

Ybx1 = Ybx1 quantitative RT-PCR in cKit+ bone marrow after 7 days of treatment; format: in vivo, mice; conditions: sorted cKit+ cells
Procedure: Total RNA was extracted from magnetic-bead isolated cKit+ bone marrow (Miltenyi Biotec) using the Direct-zol RNA extraction kit (Zymo) per manufacturers' protocols respectively. Complementary DNA was then reverse transcribed using the Verso cDNA Synthesis kit (ThermoFisher Scientific). Ybx1 expression was evaluated by quantitative reverse-transcription (qRT) PCR using Taqman probes purchased from ThermoFisher (Mm00850878_g1) on the RealPlex thermocycler (ThermoFisher Scientific, Fairlawn, NJ).

[5] = system: mice transplanted with Dre-electroporated Ubc:CreER-Jak2^RL bone marrow exhibiting MPN; assay: Jak2^RL knock-in/knock-out competitive transplant, tamoxifen-induced Jak2^V617F deletion; format: in vivo; conditions: within 3-6 weeks following tamoxifen treatment, vs MPN control
Text: as §3

[6] = system: Jak2^V617F/Tet2^f/f mutant cells; assay: Jak2^V617F/Tet2^f/f competitive transplant, tamoxifen at 9 weeks post-transplant; format: in vivo, mice; conditions: double-mutant cells
Text: Dre mRNA was purchased from TriLink Biotechnologies (San Diego, CA) and electroporation carried out using the Neon Transfection System (ThermoScientific) per the manufacturer's protocol. Specifically, bone marrow donor cells were isolated from limb bones into PBS (pH 7.2) containing 2% fetal calf serum via centrifugation. After red blood cell lysis, single-cell suspensions were depleted of lineage-committed hematopoietic cells using a Lineage Cell Depletion Kit according to manufacturer's protocol (EasySep™, StemCell Technologies, Inc.). 2.5-3.0×10^6 lineage-depleted bone marrow was then washed in PBS and then resuspended in 135 uL Buffer T to which 15 μL of Dre mRNA (at 1 μg/μL) was quickly added and electroporated at the following conditions: 1700V for 20 ms×1 pulse. The cells were then pipetted into penicillin-streptomycin free StemSpan SFEM medium with thrombopoietin (TPO; 20 ng/mL; PeproTech) and stem cell factor (SCF; 20 ng/mL; PeproTech), cultured for two hours, and then subsequently harvested and washed/resuspended in phosphate buffered saline (PBS) and transplanted via lateral tail vein injection into lethally irradiated (900cGy) 6-8 week old C57BL/6J recipient mice at approximately 4×10^5 cells per recipient along with 50,000 un-electroporated whole bone marrow support cells. […]

[7] = system: Npm1^c-Lox-Flt3^GL-ITD leukemia; assay: long term TAM treatment of mice engrafted with Npm1^Lox-C Flt3^GL-ITD leukemia; format: in vivo; conditions: TAM-chow diet
Text: FIGS. 19A-19H show reversible Flt3 mutagenesis in acute myeloid leukemia. Secondary transplant of Npm1^Lox-C Flt3^GL-ITD (20,000 cells) or Idh2^Lox-R140Q Flt3^GL-ITD (500,000) from FIGS. 18A-18E were engrafted into lethally irradiated secondary recipients with 500,000 CD45.1 WT cells. […]

[8] = system: mutant Npm1 GOLDI-Lox Nras^G12D disease; assay: bone marrow transplant of Dre-induced mutant Npm1 GOLDI-Lox / Nras^G12D, TAM vs vehicle; format: in vivo; conditions: compared to vehicle treated mice
Procedure: FIGS. 30A-30D show the development of a GOLDI-Lox On/Off Dre/Cre Npm1 Mouse.
A bone marrow transplant of a Dre-induced mutant Npm1 GOLDI-Lox expressing a co-mutant Nras^G12D allele immediately after Dre induction was performed, and mice were monitored for disease development (FIG. 30D, left panel). Upon development of disease, a cohort (n=5) of mice was treated with tamoxifen (TAM) to induce Cre and lead to reversion of the mutant Npm1 allele back to WT Npm1.

[9] = system: Cre-negative Jak2^RL MPN bone marrow cells; conditions: mouse, in vivo
Text: FIGS. 9D-9E show total bone marrow (BM) cellularity (femur) (FIG. 9D) and Myeloid progenitor (Lineage−cKit+Sca1−) (FIG. 9E) frequencies of MPN (CTRL) vs. tamoxifen (TAM) treated mice transplanted with Cre-negative JAK2^RL knock-in cells in competition with CD45.1 support at timed sacrifice 15 weeks (n=3-4 each; mean±s.e.m).
Jak2^RL and Jak2^RL/Tet2^f/f lines were crossed to UbcCreER tamoxifen-inducible Cre lines and RLTG dual-recombinase reporter lines.^17,24 Primary recipient mice transplanted with Dre mRNA-recombined UbcCreER-Jak2^RL or UbcCreER-Jak2^RL/Tet2^f/f bone marrow cells were bled every 3-4 weeks post-transplant to monitor disease status. Peripheral blood was isolated by submandibular bleeds. Complete blood counts were assessed on a ProCyte Dx (IDEXX Laboratories, Westbrook, ME) per manufacturer's instruction. […] To induce Cre and delete Jak2^V617F, mice were treated with tamoxifen (TAM; purchased from MedChemExpress) 100 mg/kg daily (dissolved in corn oil) by oral gavage ×4 followed by 14 days of TAM chow approx. 80 mg/kg daily (ENVIGO). […] For terminal tissue isolation, mice were euthanized with CO2 asphyxiation, and tissues were dissected and fixed with 4% paraformaldehyde for histopathological analysis. […] Bone marrow cell numbers were determined via an automatic cell counter (ViCell Blu, Beckman Coulter). […]

[10] = system: Npm1/Flt3-ITD cKIT+ cells; assay: in vitro culture of cKIT+ leukemic cells with 4-OHT (PrestoBlue); format: cell-based, mice; conditions: 72 hours of culture
[11] = system: Npm1GL hematopoietic cells; assay: cell number of Dre-induced mutant Npm1 GOLDI-Lox hematopoietic cells after 4-hydroxytamoxifen; format: cell-based, mice; conditions: 7 days post administration
Procedure: FIGS. 30A-30D show the development of a GOLDI-Lox On/Off Dre/Cre Npm1 Mouse. […] A subset of diseased mice were then treated with tamoxifen (TAM) to induce Cre and lead to reversion of the mutant Npm1 allele back to WT Npm1; measured levels of survival (left panel), cKIT^+ cells in the peripheral blood (middle panel), and WBC counts (right panel) in mice that received TAM compared to vehicle treated mice are shown.
Based on previous data on mutant NPM1, it was expected that cells that lose the mutant Npm1 protein undergo differentiation and eventual apoptosis, ultimately leading to a loss of cell number. To validate the reversion of the mutant Npm1 GOLDI-Lox allele to WT, Dre-induced mutant Npm1 GOLDI-Lox hematopoietic cells were exposed to 4-hydroxytamoxifen (40HT) for Cre-recombinase induction, and cell number measured 7 days post 40HT administration using Cre^−; Npm1GL cells as a negative control.

[12] = system: FlpoDHFR in Npm1^Frt-C Flt3^Frt-ITD bone marrow; conditions: FlpoDHFR delivered as a retrovirus in a transplant model
Procedure: as §1, §2

Compound: C=C[C@@H]1C[C@]1(NC(=O)[C@@H]1C[C@@H]2CN1C(=O)[C@H](C(C)(C)C)NC(=O)O[C@@H]1C[C@H]1CCCCCc1nc3ccc(OC)cc3nc1O2)C(=O)NS(=O)(=O)C1CC1.O [grazoprevir]
- recombination upon inhibition of NS3 proteolytic activity [1]: efficient recombination
- peripheral blood counts with GZV treatment, CAG:DreStaPL-ODC mice [2]: monocytosis, mild anemia and mild thrombocytopenia
- peripheral blood counts with GZV treatment, Vav1:DreStaPL-ODC mice [2]: no significant differences

Compound: CC/C(=C(\c1ccccc1)c1ccc(OCCN(C)C)cc1)c1ccccc1 [tamoxifen]
- down-regulation of STAT5 target gene expression, NES (Jak2^V617F LSKs and MEPs; GSEA of RNA-seq): −1.51
- MAPK activity by RNA-Seq, NES (Jak2^V617F LSKs and MEPs; GSEA of down regulation of KRAS signaling targets, MEPs, vs vehicle): 1.35
- GMP frequency [3]: 20.1%
- MEP frequency [3]: 14.2%
- CD45.2 chimerism in peripheral blood [4]: 17.3%
- mutant cell fraction in LSK stem-cell enriched population (mean) [4]: 28.7%
- spleen weights (mean) [4]: 125 mg
- expression of Ybx1, Rel. exp (Ybx1): 0.42
- WBC (mean) [5]: 7.59 K/uL
- hematocrit (mean) [5]: 41.6%
- platelet (mean) [5]: 749 K/uL
- hematologic parameters [6]: normalization
- peripheral blood mutant cell fraction [6]: reductions
- overall survival [7]: increase in overall survival
- WBC counts [8]: significant decrease
- cKIT+ cells in the peripheral blood [8]: significant decrease
- survival [8]: no significant difference
- phenotypes observed with Ubc:CreER-Jak2^V617F deletion, with tamoxifen in the absence of Jak2^V617F reversal [9]: not observed

Compound: 4-hydroxytamoxifen [4-OHT]
- cell number, Ubc:CreERT2 Npm1^c-Lox-Flt3^GL-ITD cells [10]: reduction in cell number
- cell number, FlpoERT2 Npm1^c-Frt Flt3^Frt-ITD cells ([10]; control without Cre-deletable allele): not
- cell number, Cre+; Npm1GL cells [11]: significant loss of cells
- cell number, Cre-; Npm1GL control cells ([11]; negative control): not observed

Compound: N#CC[C@H](C1CCCC1)n1cc(-c2ncnc3[nH]ccc23)cn1 [ruxolitinib]
- down-regulation of STAT5 target gene expression, NES (Jak2^V617F LSKs and MEPs; GSEA of RNA-seq): −0.913
- erythroid pathway gene expression (heme metabolism), NES (Jak2^V617F LSKs and MEPs; GSEA of RNA-seq, LSKs): 1.45
- GMP frequency [3]: 6.66%
- MEP frequency [3]: 35.3%
- CD45.2 chimerism in peripheral blood [4]: 37.7%
- mutant cell fraction in LSK stem-cell enriched population (mean) [4]: 87.6%
- Hct [4]: 85.8%
- spleen weights (mean) [4]: 235 mg
- expression of Ybx1, Rel. exp (Ybx1): 2.52

Compound: COc1cc(Cc2cnc(N)nc2N)cc(OC)c1OC [trimethoprim]
- disease induction in the Flp Flt3/Npm1 model [12]: capable of inducing aggressive AML

Compound: CC(=O)Nc1cc(Oc2ccc3c(nc(Nc4ccc(F)cc4F)n3C)c2C)ccn1 [CHZ868]
- MEP, GMP, and LSK mutant allele burden ([4]; compared to vehicle/ruxolitinib-treated mice, not to the extent seen with Jak2^V617F deletion): Significant reductions
- Hct [4]: 50.3%
- spleen weights (mean) [4]: 76 mg

Compound: C=C[C@@H]1C[C@]1(NC(=O)[C@@H]1C[C@@H](Oc2ncc(OC)c3ccc(Cl)cc23)CN1C(=O)[C@@H](NC(=O)OC(C)(C)C)C(C)(C)C)C(=O)NS(=O)(=O)C1CC1 [asunaprevir]
- recombination upon inhibition of NS3 proteolytic activity [1]: efficient recombination
